Measurements from US20130119363A1, “FLUORINE-CONTAINING AROMATIC COMPOUND, ORGANIC SEMICONDUCTOR MATERIAL AND ORGANIC THIN FILM DEVICE” (ASAHI GLASS COMPANY, LIMITED, priority 2010, published 2013).

Assay: Evaluation of coating properties (orthodichlorobenzene solution, spin coating)
Format: physicochemical
Conditions: one mass % orthodichlorobenzene solution, filtered through a PTFE filter, spin coated on silicon substrate; thin film formed
Protocol: One mass % of orthodichlorobenzene solution of the fluorine-containing aromatic compound (II) obtained by the synthesis example (1-1) was prepared. The obtained solution was filtered with a PTFE (polytetrafluoroethylene) filter of which thickness was 0.45 μm, and thereafter, it was coated on a silicon substrate by the spin coating. A coating condition was 1500 rotations per minute for 30 seconds. Next, the silicon substrate was placed on the hot plate, and heated at 150° C. for 90 seconds. After that, a film thickness of a compound (II) layer formed on the silicon substrate was measured by using an AFM (atomic force microscope), and it was 70 nm.
One mass % of orthodichlorobenzene solution of the fluorine-containing aromatic compound (12) obtained by the synthesis example (2-1) was prepared. The obtained solution was filtered with the PTFE (polytetrafluoroethylene) filter of which thickness was 0.45 μm, and thereafter, it was coated on the silicon substrate by the spin coating. The coating condition was 1500 rotations per minute for 30 seconds. Next, the silicon substrate was placed on the hot plate, and the heating process was performed at 120° C. for 120 seconds. After that, a film thickness of a compound (12) layer formed on the silicon substrate was measured by using the AFM (atomic force microscope), and it was 80 nm.
One mass % of orthodichlorobenzene solution of the fluorine-containing aromatic compound (13) obtained by the synthesis example (3-1) was prepared. The obtained solution was filtered with the PTFE (polytetrafluoroethylene) filter of which thickness was […], and thereafter, it was coated on the silicon substrate by the spin coating. The coating condition was 1500 rotations per minute for 30 seconds. Next, the silicon substrate was placed on the hot plate, and heated at 120° C. for 120 seconds. After that, a film thickness of a fluorine-containing aromatic compound (13) layer formed on the silicon substrate was measured by using the AFM (atomic force microscope), and it was 90 nm.

Solubility for general solvents, good solubility:
CCCCCCOc1c(F)c(F)c2c(F)c(C#Cc3ccc4cc(C#Cc5c(F)c(F)c6c(F)c(OCCCCCC)c(F)c(F)c6c5F)ccc4c3)c(F)c(F)c2c1F [Compound (11), 2,6-bis((6-hexyloxyhexafluoronaphthalene-2-yl)ethynyl)naphthalene]
CCCCCCOc1c(F)c(F)c(C#Cc2ccc3cc(C#Cc4c(F)c(F)c(OCCCCCC)c(F)c4F)ccc3c2)c(F)c1F [Compound (12), 2,6-bis((4-hexyloxytetrafluorophenyl)ethynyl)naphthalene]
CCCCCCOc1c(F)c(F)c(C#Cc2ccc(-c3ccc(-c4ccc(C#Cc5c(F)c(F)c(OCCCCCC)c(F)c5F)s4)s3)s2)c(F)c1F [Compound (13), 5,5″-bis((4-hexyloxytetrafluorophenyl)ethynyl)-2.2°: 5,2″-terthiophene]
